Experimental data as given in patent publication US9593305B2, “Differentiation of pluripotent stem cells” (Janssen Biotech, Inc., priority 2008, dated 2017).

Test system: H1 human embryonic stem cells
Experiment: MTS assay of cell proliferation during definitive endoderm differentiation (Example 23)
Format: cell-based
Settings: 100 ng/ml growth factor with 8 ng/ml bFGF, with or without Wnt3a
Protocol: Stock cultures of human embryonic stem cells (H1 human embryonic stem cell line) were maintained in an undifferentiated, pluripotent state on reduced growth factor […]™ (BD Biosciences; Cat #356231)-coated dishes in MEF conditioned medium with passage on average every four days. Passage was performed by exposing cell cultures to a solution of 1 mg/ml dispase (Invitrogen, Cat #: 17105-041) for 5 to 7 minutes at 37° C. followed by rinsing the monolayer with MEF conditioned culture medium and gentle scraping to recover cell clusters. Clusters were centrifuged at low speed to collect a cell pellet and remove residual dispase. Cell clusters were split at a 1:3 or 1:4 ratio for routine maintenance culture or a 1:1 ratio for immediate assay. All human embryonic stem cell lines were maintained at passage numbers less than 50 and routinely evaluated for normal karyotypic phenotype and for absence of mycoplasma contamination. […]
At the conclusion of 24, 48, or 72 hours of culture, one set of assay plates was subjected to a MTS assay (Promega; Cat#G3581), following the manufacturer's instructions. In brief, 20 μl of MTS was added to each well, and assay plates were incubated at 37° C., 5% CO2 for four hours prior to taking OD490 readings. […]

Substance | OD490 (MTS) over the three day assay, control treatments
GDF-8: growth factor GDF-8, also known as myostatin, member of the TGF-β family | decrease in OD490 relative to activin A treatment
Activin A: recombinant human activin A (PeproTech), TGF-beta family member | incremental increases in OD490
